# Measurements from patent US20230174571A1, “METHOD OF TREATING SHIP1-MEDIATED DISEASES USING PELOROL DERIVATIVES” (Zebrapeutics Inc., priority 2020, published 2023).
# Biological target: T1, PAC1 (Mus musculus, UniProt Q9ES52)
# T1 construct: PAC1 and PAC2 consists of phosphatase and C2 domain (residues aa 402-861 and aa 402-857 respectively); HMT-tag (His6-MBP-TEV site) (N); made in house; host or cells: E. coli
# T1 sequence (Q9ES52 402-861): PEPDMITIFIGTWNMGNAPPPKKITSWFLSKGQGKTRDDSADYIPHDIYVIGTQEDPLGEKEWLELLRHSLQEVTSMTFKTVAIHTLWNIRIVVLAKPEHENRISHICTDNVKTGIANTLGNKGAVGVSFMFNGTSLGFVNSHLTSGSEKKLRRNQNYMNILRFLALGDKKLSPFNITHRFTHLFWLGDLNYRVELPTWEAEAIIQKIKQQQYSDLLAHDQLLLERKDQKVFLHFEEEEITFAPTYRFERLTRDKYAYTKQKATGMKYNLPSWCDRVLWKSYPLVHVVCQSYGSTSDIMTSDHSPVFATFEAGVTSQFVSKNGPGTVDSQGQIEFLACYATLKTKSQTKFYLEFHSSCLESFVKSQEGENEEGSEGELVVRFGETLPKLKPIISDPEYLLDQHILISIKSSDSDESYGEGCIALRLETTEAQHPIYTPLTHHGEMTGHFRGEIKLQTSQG
# Assay: Small angle X-ray scattering of PAC1
# Settings: 190 μM PAC1 with 570 μM compound
# Procedure: Small angle X-ray scattering. PAC1 samples in 190 μM in 50 mM TrisHCl (pH7.4) 150 mM NaCl, 1 mM TCEP and 2% EtOH with and without 570 μM compound I-1 ([…]). Dynamic Light Scattering (DLS) data for PAC1 and PAC1-compound I-1 complexes were collected prior to SAXS data collection to confirm that all the samples are highly pure and suitable for data collection. The data collection was performed on a 3-pinhole camera (S-MAX3000; Rigaku Americas, The Woodlands, Tex.) equipped with a Rigaku MicroMaxp002 microfocus sealed tube (Cu Kα radiation at 1.54 Å) and a Confocal Max-Flux (CMF) optics system operating at 40 W (Rigaku). Scattering data were recorded using a 200 mm multiwire two-dimensional detector. The data for both samples and buffer were collected for 3 h for each sample within the range of 0.008≤s≤0.26 Å-1 and processed according to the method previously described, where s=4π sin θ/λ (Patel et al., 2011, Patel et al., 2010, Patel et al., 2012). The Normalized Spatial Discrepancy (NSD) of the non-liganded and liganded PAC1 models were 0.6 and 1.0 respectively.
smiles,measurement,value
Cc1cc(O)cc2c1C1(C)CCC3C(C)(C)CCCC3(C)C1C2 (stereo not shown) [Compound I-1],overall conformation of PAC1 on binding (SAXS),results in a change in its overall conformation
